For data set [1], the system named is HUES8-derived population. In words: Ki67 staining for proliferation of Pdx1+ cells. The class given is cell-based, human. The conditions noted are these: 300 nM ILV, 4 days. On the procedure: (§1) Cells were fixed with 10% formalin solution (Sigma) for 20 min at room temperature. Immunostaining was carried out with standard protocols. The following primary antibodies were used: goat anti-Pdx1 (1:500; R&D system); rabbit anti-FOXA2 (1:500; Upstate); rabbit anti-HNF6 (1:200; Santa Cruz Biotech); guinea pig anti-insulin (1:1000; Dako); rabbit anti-c-peptide (1:500; Linco); rabbit anti-amylase (1:200, Sigma); goat anti-HNF1β (1:100, Santa Cruz Biotech); and biotinylated DBA (1:400; Vector Lab). Alexa-488-, Alexa-555, and Alexa-647-conjugated donkey antibodies against mouse, rabbit, guinea pig and goat, and Pacific Blue conjugate-streptavidin (Invitrogen) were used at 1:300 dilution.
The results provided above are consistent with (1) ILV promotion of the proliferation or replication of the few pancreatic progenitors present in the starting population and with (2) differentiation induction of definitive endoderm by the compound. To distinguish between these possibilities, a HUES8-derived population was treated with 300 nM ILV for 4 days and analyzed for proliferation by staining with the antibody against Ki67 (marker for proliferating cells).

Data set [2] relates to protein kinase C (PKC) signaling. The conditions noted are these: some cell lines; Heikkila and Akerman, 1989; Hirota et al., 1987; cited from earlier work.
Data set [3] concerns hESC-derived population (Pdx1+ cells). Put plainly: ILV titration and test on other hESC lines, Pdx1+ cells. The class given is cell-based, human. On the procedure:
(§2) To generate a starting population, HUES cells were cultured on MEF feeder cells until 80-90% confluent, then treated with 25 ng/ml Wnt3a (R&D systems)+100 ng/ml Activin A (R&D systems) in advanced RPMI (A-RPMI, Invitrogen) supplemented with 1×L-Glu and 1×PS for 1 day, and then 100 ng/ml Activin A in A-RPMI supplemented with 1×L-Glu, 1×PS and 0.2% FBS (Invitrogen). Two days later, the media was changed to 50 ng/ml FGF10 (R&D systems)+0.25 μM KAAD-CYC (Calbiochem) in A-RPMI supplemented with 1×L-Glu, 1×PS and 2% FBS and maintained for additional 2 days. Cells were then transferred to 50 ng/ml FGF10+0.25 μM KAAD-CYC+2 μM RA (Sigma) in DMEM supplemented with 1×L-Glu, 1×PS, 1×B27 (Invitrogen) and cultured for an additional 4 days. ILV was obtained from Axxora, KAAD-CYC, TPB, PMA, BISI, Gö 6983, U0126 and PD98059 were obtained from Calbiochem and RA were obtained from Sigma.
as §1
Additional experiments were carried out to optimize treatment to obtain more Pdx1^+ cells. […] Secondly, since hESC lines vary in their differentiation potentials (Osafune et al., 2008), ILV was tested on other hESC lines and shown to be effective on HUES 2, 4 and 8. After 4 days treatment with ILV, 26.9±2.8% cells of HUES8-derived population are positively stained by Pdx1 antibody (FIG. 2b), making it the most responsive of the lines tested.

In data set [4] the test system is HUES9-derived population (Pdx1+ cells). In words: High throughput screen for compounds increasing Pdx1+ cells. It counts as cell-based, human. On the procedure: as §2
For a high throughput screen, the starting material was hESCs (HUES9 cells) that were induced to pancreatic lineage using a slightly modified version of previously published protocols (D'Amour et al., 2006; Jiang et al., 2007), as described in Example 1. After 9 days of stepwise differentiation, a heterogeneous population of cells was generated containing cells that stained strongly, weakly or not at all with a Pdx1 antibody. Any cell that stained with the Pdx1 staining antibody was counted as Pdx1^+ cells regardless of staining intensity. Together, the Pdx1^+ cells comprises 5.1±1.8% of the total cell number.
To carry out the screen, the cells were trypsinized and plated on 804G-coated 384-well plates at 6000 cells/well using chemically defined media (DMEM supplemented with 2 mM L-Glu, 1×PS, 1×B27). After overnight incubation, compounds were screened by adding them to provide a final concentration of 10 μM, 1 μM and 0.1 μM. Four days later, the cells were stained with Pdx1 antibody and the plates were analyzed with Opera high content screening system (PerkinElmer).
The wells in which the percentage of Pdx1^+ cells is higher than present at day 1 and higher than day 5 treated with DMSO were selected as primary hits. Compounds that increase both the number and percentage of Pdx1^+ cells were picked as primary hits. Eleven compounds produced hits. (FIG. 7, Table I in FIG. 9 and formulas in FIG. 10). These eleven compounds were (−)-Indolactam V (FIG. 1c and Compound I in Table 1) boldine (Compound II), rotenone (Compound III), ethopropazine hydrochloride (Compound IV), cedrelone (Compound V), prieurianin (Compound VI), strophanthidin (Compound VII), trimeprazine tartrate (Compound VIII), terconazole (Compound IX), dimethisoquin hydrochloride (Compound X), harmine hydrochloride (Compound XI).
as §1

For data set [5], the system named is HUES8-derived population. Put plainly: Pancreatic lineage markers in ILV-treated population (immunocytochemistry, qRT-PCR). It counts as cell-based, human. The protocol: Total RNAs were extracted with the RNeasy Mini Kit (Qiagen) and reverse-transcribed using SuperScript III RT-PCR system (Invitrogen) according to the manufacturer's protocol. One microliter of cDNA sample was PCR amplified with QuantiFast SYBR Green PCR Kit (Qiagen) and analyzed with DNA engine Opticon2 (MJ Research).
as §1
To further characterize the cells induced by ILV, beyond Pdx1^+ expression, multiple pancreatic lineage markers were examined by immunocytochemistry and qRT-PCR. More than 96% of the Pdx1^+ cells following ILV treatment show significant expression of other pancreatic progenitor markers, including FOXA2 and HNF6 (FIG. 4a). After ILV treatment, Pdx1, HNF6, Ptfla, Sox9, FOXA2 mRNAs level increase (FIG. 4b).
For orientation: Real-time PCR tracks product formation cycle by cycle.

As usually defined, the EC50 is the concentration that produces a half-maximal response. Regarding (−)-Indolactam V [ILV], in data set [1], the “Pdx1+ cells expressing Ki67” value is reported as “no Pdx1^+ cells expressing Ki67”. Also, the PKC signaling entry in data set [2] is on record as “activates”. Further, in data set [3] (HUES 2, 4 and 8), the “effect on other hESC lines” value is recorded as “effective”. The toxicity result in data set [3] (at 300 nM) is on record as “no detectable toxicity”. The “concentration of highest efficiency” value in data set [3] (titration of ILV from 20 nM to 5 μM) was 300 nM. In addition, in data set [3] (titration of ILV from 20 nM to 5 μM, read-out: EC50 (dose-dependent increase of Pdx1+ cells)), the concentration for a half-maximal effect (EC50) came to 142 nM. For the same substance, in data set [4] (HUES9-derived cells, 10 μM, 1 μM and 0.1 μM, four days), the “primary hits (increase both the number and percentage of Pdx1+ cells)” value is listed as “hits”. This substance returned an effective concentration in data set [4] (HUES9-derived cells, primary screen) of roughly 1 µM. In addition, the “percentage of Pdx1+ cells” value in data set [4] (HUES9-derived population, 1 μM ILV for 4 days (day 5)) was determined as 10.9±0.9%. For the same substance, in data set [5] (300 nM ILV, 4 days, qRT-PCR), the “Pdx1, HNF6, Ptfla, Sox9, FOXA2 mRNAs level” value is “increase”; the “endocrine progenitor markers Nkx2.2, Ngn3 and Nkx6.1” value was “upregulated”. Further, the “share of Pdx1+ cells with significant expression of FOXA2 and HNF6” value in data set [5] (after ILV treatment, immunocytochemistry) is listed as “More than 96%”.

The values are drawn from patent US9157062B2, “Compositions and methods for promoting the generation of PDX1+ pancreatic cells” (President and Fellows of Harvard College, priority 2008, dated 2015).
